Assay results: paper PMC5218480 (PLoS ONE, 2017)

Test system: MV-4-11 cells
Experiment: Gene expression microarray analysis (Affymetrix PrimeView) and GSEA
Type: cell-based, human
Set-up: RFU PODN (11730768_x_at) / Fold change /veh PODN (11730768_x_at) / RFU LINC00158 (11744669_a_at) / Fold change /veh LINC00158 (11744669_a_at) / RFU DUSP10 (11751237_a_at) / Fold change /veh DUSP10 (11751237_a_at) / RFU ID3 (11757404_x_at) / Fold change /veh ID3 (11757404_x_at) / RFU PLEKHG5 (11737974_s_at) / Fold change /veh PLEKHG5 (11737974_s_at) / RFU LRRC4B (11730491_at) / Fold change /veh LRRC4B (11730491_at) / RFU GIMAP4 (11747438_a_at) / Fold change /veh GIMAP4 (11747438_a_at) / RFU KRT8 (11758183_x_at) / Fold change /veh KRT8 (11758183_x_at) / RFU CNN1 (11734310_a_at) / Fold change /veh CNN1 (11734310_a_at) / RFU VPS37D (11726825_at) / Fold change /veh VPS37D (11726825_at) / RFU C10orf10 (11716522_x_at) / Fold change /veh C10orf10 (11716522_x_at) / RFU KIR2DL2 /// KIR2DL4 /// KIR2DL5A /// KIR2DL5B /// KIR2DS1 /// KIR2DS2 /// KIR2DS3 /// KIR2DS4 /// KIR3DL3 /// KIR3DL3 /// KIR3DS1 (11738374_at) / Fold change /veh KIR2DL2 /// KIR2DL4 /// KIR2DL5A /// KIR2DL5B /// KIR2DS1 /// KIR2DS2 /// KIR2DS3 /// KIR2DS4 /// KIR3DL3 /// KIR3DL3 /// KIR3DS1 (11738374_at) / RFU C1QL1 (11718748_at) / Fold change /veh C1QL1 (11718748_at) / RFU TMPRSS4 (11747572_a_at) / Fold change /veh TMPRSS4 (11747572_a_at) / RFU HAMP (11756126_x_at) / Fold change /veh HAMP (11756126_x_at) / RFU RNFT2 (11725882_a_at) / Fold change /veh RNFT2 (11725882_a_at) / RFU NR4A2 (11747474_a_at) / Fold change /veh NR4A2 (11747474_a_at) / RFU ABCC12 (11746883_a_at) / Fold change /veh ABCC12 (11746883_a_at) / RFU TMEM136 (11760407_x_at) / Fold change /veh TMEM136 (11760407_x_at) / RFU CLDN22 /// WWC2 (11732394_at) / Fold change /veh CLDN22 /// WWC2 (11732394_at) / RFU HLA-DPB1 (11760878_x_at) / Fold change /veh HLA-DPB1 (11760878_x_at) / RFU SPINT1 (11716480_a_at) / Fold change /veh SPINT1 (11716480_a_at) / RFU GAP43 (11754022_s_at) / Fold change /veh GAP43 (11754022_s_at) / RFU A4GNT (11735810_at) / Fold change /veh A4GNT (11735810_at) / RFU PRB3 (11715151_x_at) / Fold change /veh PRB3 (11715151_x_at) / RFU TUBB4B (11761932_at) / Fold change /veh TUBB4B (11761932_at) / RFU CAPN14 (11732068_a_at) / Fold change /veh CAPN14 (11732068_a_at) / RFU TMCC2 (11721928_a_at) / Fold change /veh TMCC2 (11721928_a_at) / RFU IRGQ (11745062_a_at) / Fold change /veh IRGQ (11745062_a_at) / RFU FAM174B (11720279_a_at) / Fold change /veh FAM174B (11720279_a_at) / RFU TMPRSS4 (11748680_a_at) / Fold change /veh TMPRSS4 (11748680_a_at) / RFU FAM212B (11763350_a_at) / Fold change /veh FAM212B (11763350_a_at) / RFU PLEKHG5 (11743358_a_at) / Fold change /veh PLEKHG5 (11743358_a_at) / RFU ZSCAN30 (11745921_a_at) / Fold change /veh ZSCAN30 (11745921_a_at) / RFU CMKLR1 (11741424_a_at) / Fold change /veh CMKLR1 (11741424_a_at) / RFU LOC101060620 /// MAPK8IP1 (11723275_at) / Fold change /veh LOC101060620 /// MAPK8IP1 (11723275_at) / RFU SPTSSB (11747773_x_at) / Fold change /veh SPTSSB (11747773_x_at) / RFU PRSS12 (11739890_at) / Fold change /veh PRSS12 (11739890_at) / RFU BIN1 (11741810_x_at) / Fold change /veh BIN1 (11741810_x_at) / RFU WNT11 (11732464_a_at) / Fold change /veh WNT11 (11732464_a_at) / RFU C10orf10 (11716521_a_at) / Fold change /veh C10orf10 (11716521_a_at) / RFU C5orf56 (11738089_at) / Fold change /veh C5orf56 (11738089_at) / RFU CYB561 (11721691_x_at) / Fold change /veh CYB561 (11721691_x_at) / RFU ANKRD19P (11752326_a_at) / Fold change /veh ANKRD19P (11752326_a_at) / RFU OR2T12 /// OR2T33 /// OR2T8 (11738714_s_at) / Fold change /veh OR2T12 /// OR2T33 /// OR2T8 (11738714_s_at) / RFU VCAN (11748164_a_at) / Fold change /veh VCAN (11748164_a_at) / RFU JSRP1 (11732532_at) / Fold change /veh JSRP1 (11732532_at) / RFU KRTAP10-11 (11738290_x_at) / Fold change /veh KRTAP10-11 (11738290_x_at) / RFU MYO3A (11730013_a_at) / Fold change /veh MYO3A (11730013_a_at) / RFU EBF3 (11725865_a_at) / Fold change /veh EBF3 (11725865_a_at) / RFU CAMK2N1 (11719241_x_at) / Fold change /veh CAMK2N1 (11719241_x_at) / RFU C5orf56 (11738088_a_at) / Fold change /veh C5orf56 (11738088_a_at) / RFU OLFML3 (11715873_a_at) / Fold change /veh OLFML3 (11715873_a_at) / RFU LOC100653217 /// NTM (11731650_a_at) / Fold change /veh LOC100653217 /// NTM (11731650_a_at) / RFU MAPK11 (11762145_a_at) / Fold change /veh MAPK11 (11762145_a_at) / RFU FIZ1 (11724087_x_at) / Fold change /veh FIZ1 (11724087_x_at) / RFU OASL (11726364_x_at) / Fold change /veh OASL (11726364_x_at) / RFU SOX15 (11748057_x_at) / Fold change /veh SOX15 (11748057_x_at) / RFU CD79A (11719716_a_at) / Fold change /veh CD79A (11719716_a_at) / RFU HIST1H1D (11736915_at) / Fold change /veh HIST1H1D (11736915_at) / RFU CASKIN2 (11723855_a_at) / Fold change /veh CASKIN2 (11723855_a_at) / RFU LOC730098 (11760151_x_at) / Fold change /veh LOC730098 (11760151_x_at) / RFU OR4N2 (11742367_at) / Fold change /veh OR4N2 (11742367_at) / RFU PRRT2 (11749266_a_at) / Fold change /veh PRRT2 (11749266_a_at) / RFU SNX32 (11753110_a_at) / Fold change /veh SNX32 (11753110_a_at) / RFU CDHR5 (11726645_a_at) / Fold change /veh CDHR5 (11726645_a_at) / RFU RCAN1 (11760418_a_at) / Fold change /veh RCAN1 (11760418_a_at) / RFU FAM167A (11723789_a_at) / Fold change /veh FAM167A (11723789_a_at) / RFU FAM26E (11764081_at) / Fold change /veh FAM26E (11764081_at) / RFU ISYNA1 (11749810_s_at) / Fold change /veh ISYNA1 (11749810_s_at) / RFU ACY1 (11761880_at) / Fold change /veh ACY1 (11761880_at) / RFU 11764098_at / Fold change /veh 11764098_at / RFU SAMD14 (11745864_x_at) / Fold change /veh SAMD14 (11745864_x_at) / RFU NPB (11741838_a_at) / Fold change /veh NPB (11741838_a_at) / RFU TMPRSS6 (11731388_a_at) / Fold change /veh TMPRSS6 (11731388_a_at) / RFU KRTAP10-2 (11738614_at) / Fold change /veh KRTAP10-2 (11738614_at) / RFU ARHGAP8 /// PRR5-ARHGAP8 (11727945_x_at) / Fold change /veh ARHGAP8 /// PRR5-ARHGAP8 (11727945_x_at) / RFU KRTAP5-7 /// NADSYN1 (11734609_at) / Fold change /veh KRTAP5-7 /// NADSYN1 (11734609_at) / RFU RASL12 (11751679_a_at) / Fold change /veh RASL12 (11751679_a_at) / RFU CDKN2B (11736163_a_at) / Fold change /veh CDKN2B (11736163_a_at) / RFU PRF1 (11729649_at) / Fold change /veh PRF1 (11729649_at) / RFU, ZNF638 /// ZNF638-IT1 / Fold change vs veh, ZNF638 /// ZNF638-IT1 / RFU, PANK3 / Fold change vs veh, PANK3 / RFU, SH3YL1 / Fold change vs veh, SH3YL1 / RFU, ZEB2 / Fold change vs veh, ZEB2 / RFU, NRIP1 / Fold change vs veh, NRIP1 / RFU, PTTG1IP / Fold change vs veh, PTTG1IP / RFU, CAPN2 / Fold change vs veh, CAPN2 / RFU, MED14 / Fold change vs veh, MED14 / RFU, SNORA58 / Fold change vs veh, SNORA58 / RFU, C1orf63 / Fold change vs veh, C1orf63 / RFU, LRRFIP1 / Fold change vs veh, LRRFIP1 / RFU, NDUFAF7 / Fold change vs veh, NDUFAF7 / RFU, SLC12A2 / Fold change vs veh, SLC12A2 / RFU, IBTK / Fold change vs veh, IBTK / RFU, ESF1 / Fold change vs veh, ESF1 / Fold change vs veh, TMEM50B / RFU, TAOK1 / Fold change vs veh, TAOK1 / RFU, ACBD3 / Fold change vs veh, ACBD3 / RFU, TMA16 / Fold change vs veh, TMA16 / RFU, RWDD3 / Fold change vs veh, RWDD3 / RFU, BCAT1 / Fold change vs veh, BCAT1 / RFU, EDEM3 / Fold change vs veh, EDEM3 / RFU, TMEM33 / Fold change vs veh, TMEM33 / RFU, WDR75 / Fold change vs veh, WDR75 / RFU, AHCTF1 / Fold change vs veh, AHCTF1 / RFU, TFRC / Fold change vs veh, TFRC / RFU, ZDHHC17 / Fold change vs veh, ZDHHC17 / RFU, NOM1 / Fold change vs veh, NOM1 / RFU, ARL8B / Fold change vs veh, ARL8B / RFU, ZBTB11 / Fold change vs veh, ZBTB11 / RFU, TAMM41 / Fold change vs veh, TAMM41 / RFU, KIAA1704 /// LOC100996395 / Fold change vs veh, KIAA1704 /// LOC100996395 / RFU, ING1 / Fold change vs veh, ING1 / RFU, TRMT61B / Fold change vs veh, TRMT61B / RFU, FUBP3 / Fold change vs veh, FUBP3 / RFU, TP53 / Fold change vs veh, TP53 / RFU, TNKS2 / Fold change vs veh, TNKS2 / RFU, ZFP14 / Fold change vs veh, ZFP14 / RFU, ACTR2 / Fold change vs veh, ACTR2 / RFU, PPP3R1 / Fold change vs veh, PPP3R1 / RFU, PIK3R1 / Fold change vs veh, PIK3R1 / RFU, HNRNPA1 / Fold change vs veh, HNRNPA1 / RFU, RNF170 / Fold change vs veh, RNF170 / RFU, ZNF28 / Fold change vs veh, ZNF28 / RFU, RNGTT / Fold change vs veh, RNGTT / RFU, OGT / Fold change vs veh, OGT / RFU, BRD1 / Fold change vs veh, BRD1 / RFU, MARS / Fold change vs veh, MARS / RFU, ZNF655 / Fold change vs veh, ZNF655 / RFU, FAHD1 / Fold change vs veh, FAHD1 / RFU, BDP1 / Fold change vs veh, BDP1 / RFU, LRRCC1 / Fold change vs veh, LRRCC1 / RFU, ARID1A / Fold change vs veh, ARID1A / RFU, ZNF146 / Fold change vs veh, ZNF146 / RFU, ZNF330 / Fold change vs veh, ZNF330 / RFU, GPN3 / Fold change vs veh, GPN3 / RFU, C9orf123 / Fold change vs veh, C9orf123 / RFU, N4BP2L2 / Fold change vs veh, N4BP2L2 / RFU, ARFIP1 / Fold change vs veh, ARFIP1 / RFU, FAM179B / Fold change vs veh, FAM179B / RFU, BCL10 / Fold change vs veh, BCL10 / RFU, UHRF1BP1L / Fold change vs veh, UHRF1BP1L / RFU, BET1 / Fold change vs veh, BET1 / RFU, CNOT2 / Fold change vs veh, CNOT2 / RFU, ZNF268 / Fold change vs veh, ZNF268 / Fold change vs veh, ZNF507 / RFU, DGCR2 / Fold change vs veh, DGCR2 / RFU, WDSUB1 / Fold change vs veh, WDSUB1 / Fold change vs veh, HSP90B1 /// MIR3652 / RFU, ADSS / Fold change vs veh, ADSS / RFU, GK / Fold change vs veh, GK / RFU, ZNF148 / Fold change vs veh, ZNF148 / RFU, TAF9 / Fold change vs veh, TAF9 / RFU, SLC1A5 / Fold change vs veh, SLC1A5 / RFU, SLMO2 / Fold change vs veh, SLMO2 / RFU, ABCC4 / Fold change vs veh, ABCC4 / RFU, LOC101060439 /// RAP1B / Fold change vs veh, LOC101060439 /// RAP1B / RFU, RFX7 / Fold change vs veh, RFX7 / RFU, GTPBP10 / Fold change vs veh, GTPBP10 / RFU, CNEP1R1 / Fold change vs veh, CNEP1R1 / RFU, BIVM-ERCC5 /// ERCC5 / Fold change vs veh, BIVM-ERCC5 /// ERCC5 / RFU, ILF3 / Fold change vs veh, ILF3 / RFU 11762660_at / Fold change /veh 11762660_at / RFU VCAN (11757783_s_at) / Fold change /veh VCAN (11757783_s_at) / RFU DDX43 (11728927_at) / Fold change /veh DDX43 (11728927_at) / RFU KRT8 (11758188_x_at) / Fold change /veh KRT8 (11758188_x_at) / RFU NKD1 (11759106_at) / Fold change /veh NKD1 (11759106_at) / RFU SRD5A1 (11742802_a_at) / Fold change /veh SRD5A1 (11742802_a_at) / RFU TPSAB1 /// TPSB2 (11721975_s_at) / Fold change /veh TPSAB1 /// TPSB2 (11721975_s_at) / RFU GSTM3 (11746129_a_at) / Fold change /veh GSTM3 (11746129_a_at) / RFU IL23R (11737362_x_at) / Fold change /veh IL23R (11737362_x_at) / RFU TMEM51 (11727254_a_at) / Fold change /veh TMEM51 (11727254_a_at) / RFU PIWIL2 (11732686_x_at) / Fold change /veh PIWIL2 (11732686_x_at) / RFU ORM1 (11744905_x_at) / Fold change /veh ORM1 (11744905_x_at) / RFU CCDC152 (11743942_at) / Fold change /veh CCDC152 (11743942_at) / RFU ECM1 (11717891_a_at) / Fold change /veh ECM1 (11717891_a_at) / RFU IL23R (11748794_a_at) / Fold change /veh IL23R (11748794_a_at) / RFU TNFAIP8L3 (11732012_x_at) / Fold change /veh TNFAIP8L3 (11732012_x_at) / RFU MBOAT4 (11741988_at) / Fold change /veh MBOAT4 (11741988_at) / RFU 11764193_at / Fold change /veh 11764193_at / RFU TMEM53 (11763286_at) / Fold change /veh TMEM53 (11763286_at) / RFU MAGEB2 (11727129_at) / Fold change /veh MAGEB2 (11727129_at) / RFU TMEM200A (11744735_a_at) / Fold change /veh TMEM200A (11744735_a_at) / RFU CCDC152 (11751479_a_at) / Fold change /veh CCDC152 (11751479_a_at) / RFU FAM211A (11726209_a_at) / Fold change /veh FAM211A (11726209_a_at) / RFU RGS16 (11746705_a_at) / Fold change /veh RGS16 (11746705_a_at) / RFU VCAN (11755009_s_at) / Fold change /veh VCAN (11755009_s_at) / RFU RHOB (11743442_s_at) / Fold change /veh RHOB (11743442_s_at) / RFU RGS16 (11720943_a_at) / Fold change /veh RGS16 (11720943_a_at) / RFU RGS16 (11720944_at) / Fold change /veh RGS16 (11720944_at) / RFU, VPS4B / Fold change vs veh, VPS4B / RFU, CREB1 / Fold change vs veh, CREB1 / RFU, DNAJC13 / Fold change vs veh, DNAJC13 / RFU, GNAQ / Fold change vs veh, GNAQ / RFU, CDK5R1 / Fold change vs veh, CDK5R1 / RFU, ZRANB3 / Fold change vs veh, ZRANB3 / RFU, CUL4A / Fold change vs veh, CUL4A / RFU, CCNY / Fold change vs veh, CCNY / RFU, UFL1 / Fold change vs veh, UFL1 / RFU, COG3 / Fold change vs veh, COG3 / RFU, DIAPH2 / Fold change vs veh, DIAPH2 / RFU, SKA2 / Fold change vs veh, SKA2 / RFU, AFF3 / Fold change vs veh, AFF3 / RFU, LMF1 / Fold change vs veh, LMF1 / RFU, IPO11 / Fold change vs veh, IPO11 / RFU, DFFB / Fold change vs veh, DFFB / RFU, FOXP1 / Fold change vs veh, FOXP1 / RFU, CARD8 / Fold change vs veh, CARD8 / RFU, STRN3 / Fold change vs veh, STRN3 / RFU, ADK / Fold change vs veh, ADK / RFU, RASSF2 / Fold change vs veh, RASSF2 / RFU, WIPF1 / Fold change vs veh, WIPF1 / RFU, LARP1B / Fold change vs veh, LARP1B / RFU, RASA1 / Fold change vs veh, RASA1 / RFU, RB1 / Fold change vs veh, RB1 / RFU, PPFIA1 / Fold change vs veh, PPFIA1 / RFU, MAT2A / Fold change vs veh, MAT2A / RFU, CCT5 / Fold change vs veh, CCT5 / RFU, WDR92 / Fold change vs veh, WDR92 / RFU, CUX1 / Fold change vs veh, CUX1 / RFU, TTC7A / Fold change vs veh, TTC7A / RFU, TMEM135 / Fold change vs veh, TMEM135 / RFU, DEPTOR / Fold change vs veh, DEPTOR / RFU, CPM / Fold change vs veh, CPM / RFU, DNAJB6 / Fold change vs veh, DNAJB6 / RFU, CACNA2D3 / Fold change vs veh, CACNA2D3 / RFU, DTX4 / Fold change vs veh, DTX4 / RFU, TFCP2 / Fold change vs veh, TFCP2 / RFU, GMCL1 /// GMCL1P1 / Fold change vs veh, GMCL1 /// GMCL1P1 / RFU, AEBP2 / Fold change vs veh, AEBP2 / RFU, SNHG1 /// SNORD22 /// SNORD25 /// SNORD26 /// SNORD27 /// SNORD28 /// SNORD29 /// SNORD31 / Fold change vs veh, SNHG1 /// SNORD22 /// SNORD25 /// SNORD26 /// SNORD27 /// SNORD28 /// SNORD29 /// SNORD31 / Fold change (Aza/veh), C12orf56 (ProbeSet 11735607_a_at) / Fold change (ACY-1035/veh), C12orf56 (ProbeSet 11735607_a_at) / Fold change (Aza/veh), FGFR1OP (ProbeSet 11751329_s_at) / Fold change (ACY-1035/veh), FGFR1OP (ProbeSet 11751329_s_at) / Fold change (Aza/veh), VPS36 (ProbeSet 11739960_a_at) / Fold change (ACY-1035/veh), VPS36 (ProbeSet 11739960_a_at) / RFU SYPL1 (11715823_x_at) / Fold change /veh SYPL1 (11715823_x_at) / RFU IGFBP7 (11715501_s_at) / Fold change /veh IGFBP7 (11715501_s_at) / RFU REEP3 (11722064_at) / Fold change /veh REEP3 (11722064_at) / RFU IGLL1 (11728026_x_at) / Fold change /veh IGLL1 (11728026_x_at): dose or concentration left out as unconfirmed
Settings: ProbeSet 11743286_at; LIST D

## Nc1ccc(-c2cccs2)cc1NC(=O)c1ccc2c(c1)cc(C1CC1)n2CCN1CCOCC1 [ACY-1035]
  RFU, DTX4: 268.88 RFU
